Patent publication US20040109905A1, “Method and composition of anthocyanin-rich berry extracts that prevents or inhibits angiogenesis and helicobacter pylori and acts as a powerful antioxidant that provides various health benefits” (priority 2002, published 2004)

System: H2O2-induced expression of VEGF
Experiment: H2O2-induced VEGF expression in HaCaT keratinocytes (ELISA)
Assay type: cell-based, human
Conditions: for VEGF: HaCaT cells, FA 200 nM, catechin 100 nM, rutin 1 μM, α-tocopherol 10 μM for 12 hours, then H2O2 150 μM for 12 hours, Mean±SD of three experiments; for effect on H2O2 (oxidant)-inducible VEGF expression, in words: human keratinocytes
Protocol: The cells used for the test were immortalized HaCaT human keratinocytes grown in Dulbecco's modified Eagle's medium (provided by Life Technologies of Gaithersburg, Md.) and supplemented with 10% fetal bovine serum, 100 U/mL penicillin and 100 μg/mL streptomycin.
Solutions incorporating berry extracts or GSPE were prepared fresh in dimethyl sulfoxide at concentrations such that the final concentration of the solvent in cell suspension never exceeded 0.1% prior to cell treatment, the DMSO solutions were passed through a […] filter for sterilization. Respective controls were treated with equal volumes of dimethyl sulfoxide. The test cells were pretreated with the berry solutions.
Test cells were seeded onto multiple well culture-plates. After 24 hours of growth at 80% confluency, the cells were synchronized by culturing them in a serum-deprived medium for 12 hours. Following the synchronization, the cells were treated with H2O2 or TNFα. The berry treatment protocols are described in the legends for Tables 2 through 4 below. A serum-free medium was selected to avoid any possible interaction between the serum components and H2O2. The VEGF level in the medium was determined using a commercially available ELISA kit, marketed by R and D systems of Minneapolis, Minn.
(§1) HaCaT cells were seeded at density 0.45×10^6/well/3 ml. After 24 hr, growth media was chanced to serum free RPMI and berry samples (50 μg/ml) or GSPE (25 μg/ml) were added. After 12 hours, cells were challenged with H2O2 (150 μM). After 12 hours of activation with H2O2, media was collected for ELISA. *p<0.05, higher in response to H2O2 treatment; *lower compared to H2O2 treated cells. Mean±SD of three experiments.
as §1, with “and either pure flavonoids ([…], FA 200 nM; catechin, Cat 100 nM, ruti, rut 1 μM) at concentrations observed in” for “and”, “samples” for “samples (50 μg/ml)”, “a α-tocopherol (10 μM as reference antioxidant)” for “GSPE (25 μg/ml)”

COc1cc(/C=C/C(=O)O)ccc1O [Ferrulic Acid]
VEGF: 319.19 ± 21.05 pg/mL
effect on H2O2 (oxidant)-inducible VEGF expression, in words: suppress oxidant-inducible VEGF expression to some degree

C[C@@H]1O[C@@H](OC[C@H]2O[C@@H](Oc3c(-c4ccc(O)c(O)c4)oc4cc(O)cc(O)c4c3=O)[C@H](O)[C@@H](O)[C@@H]2O)[C@H](O)[C@H](O)[C@H]1O [Rutin]
VEGF: 209.06 ± 59.28 pg/mL

Cc1c(C)c2c(c(C)c1O)CC[C@@](C)(CCC[C@H](C)CCC[C@H](C)CCCC(C)C)O2 [α-tocopherol]
VEGF: 397.10 ± 64.91 pg/mL
effect on H2O2 (oxidant)-inducible VEGF expression, in words: did not influence inducible VEGF expression

Catechin
VEGF: 285.89 ± 51.13 pg/mL
effect on H2O2 (oxidant)-inducible VEGF expression, in words: suppress oxidant-inducible VEGF expression to some degree
